Measured values reported in article PMC9304199, “A small molecule CFTR potentiator restores ATP‐dependent channel gating to the cystic fibrosis mutant G551D‐CFTR” (British Journal of Pharmacology, 2022).

How the values were obtained:
[1] = target: T1, native CFTR, genotype F508del/G551D (Homo sapiens, UniProt P13569, G551D); assay: Ussing chamber CFTR-mediated short-circuit current (Isc) in F508del/G551D human bronchial epithelial cells; assay type: cell-based; details: for EC50: F508del/G551D epithelia of hBE cells, Isc, 35°C, read-out: EC50 (μM) (95% CI); for Emax: HBE, read-out: Maximal effect (%) (95% CI)
T1 construct: For functional studies of native CFTR, we used primary cultures of human bronchial epithelial cells; host or cells: primary human bronchial epithelial cells, F508del/G551D, air-liquid interface cultures, studied at 35°C
T1 sequence (P13569 whole entry F508del/G551D): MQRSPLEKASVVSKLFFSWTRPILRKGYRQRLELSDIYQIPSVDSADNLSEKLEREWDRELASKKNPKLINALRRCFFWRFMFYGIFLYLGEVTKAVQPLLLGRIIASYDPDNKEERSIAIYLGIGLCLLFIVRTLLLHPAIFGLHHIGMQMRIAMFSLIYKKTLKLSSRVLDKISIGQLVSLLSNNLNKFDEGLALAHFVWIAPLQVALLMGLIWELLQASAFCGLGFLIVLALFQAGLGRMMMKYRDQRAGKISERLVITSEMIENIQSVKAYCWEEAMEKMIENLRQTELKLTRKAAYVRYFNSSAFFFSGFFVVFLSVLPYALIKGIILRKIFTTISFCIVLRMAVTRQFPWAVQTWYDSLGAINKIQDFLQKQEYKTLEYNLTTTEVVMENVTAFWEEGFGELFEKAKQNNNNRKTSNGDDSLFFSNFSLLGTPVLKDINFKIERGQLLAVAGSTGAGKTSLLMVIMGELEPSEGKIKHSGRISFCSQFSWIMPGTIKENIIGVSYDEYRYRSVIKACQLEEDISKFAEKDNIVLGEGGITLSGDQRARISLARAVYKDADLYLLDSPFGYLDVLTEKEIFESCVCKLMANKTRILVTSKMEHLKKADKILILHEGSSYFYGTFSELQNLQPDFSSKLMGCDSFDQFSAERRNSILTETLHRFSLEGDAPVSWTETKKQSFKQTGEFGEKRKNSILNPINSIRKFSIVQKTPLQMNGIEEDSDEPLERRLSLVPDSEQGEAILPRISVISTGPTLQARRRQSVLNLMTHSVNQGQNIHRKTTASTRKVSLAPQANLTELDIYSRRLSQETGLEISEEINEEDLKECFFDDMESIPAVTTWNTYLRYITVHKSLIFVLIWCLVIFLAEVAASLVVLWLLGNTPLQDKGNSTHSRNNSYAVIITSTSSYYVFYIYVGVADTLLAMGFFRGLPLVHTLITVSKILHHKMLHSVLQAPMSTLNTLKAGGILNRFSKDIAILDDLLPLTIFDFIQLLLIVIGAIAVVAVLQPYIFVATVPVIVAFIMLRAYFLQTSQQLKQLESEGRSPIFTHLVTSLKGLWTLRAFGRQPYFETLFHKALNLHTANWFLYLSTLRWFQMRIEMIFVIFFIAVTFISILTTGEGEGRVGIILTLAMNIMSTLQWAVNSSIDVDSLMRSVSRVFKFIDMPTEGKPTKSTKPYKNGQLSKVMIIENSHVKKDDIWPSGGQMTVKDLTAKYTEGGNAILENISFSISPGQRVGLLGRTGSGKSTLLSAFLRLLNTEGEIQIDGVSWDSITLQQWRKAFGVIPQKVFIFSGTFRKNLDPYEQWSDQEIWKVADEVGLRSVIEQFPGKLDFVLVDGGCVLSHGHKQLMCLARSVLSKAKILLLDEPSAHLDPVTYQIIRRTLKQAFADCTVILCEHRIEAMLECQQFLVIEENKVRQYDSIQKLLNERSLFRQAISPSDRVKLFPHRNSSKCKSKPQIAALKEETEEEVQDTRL
Text: For functional studies of native CFTR, we used primary cultures of human bronchial epithelial cells of genotypes F508del/F508del and F508del/G551D. Passage 1 (P1) human bronchial epithelial cells from SH Randell (University of North Carolina [UNC] Cystic Fibrosis Center Tissue Procurement and Cell Culture Core) were differentiated at an air–liquid interface as described by Neuberger et al., ([2011]) with some modifications. The research conducted on human cells at UNC has been verified as compliant with Pfizer policies, including institutional review board or institutional ethics committee approval. Cells were thawed and expanded in BEGM™ Bronchial Epithelial Cell Growth Medium (cat. no. CC‐3170, Lonza, USA) supplemented with retinoic acid (10 nM) and banked at P2. For functional assays, P2 cells were expanded to P4, and 5 × 10^5 P4 human bronchial epithelial cells were seeded in growth medium on Snapwell filter inserts (cat. no. 3801, Corning, NY, USA). Cells were switched to differentiation medium the following day and cultured submerged for 3 days before the medium was removed from the apical membrane to establish an air–liquid interface. Thereafter, the basolateral medium was changed every 2–3 days and mucus washed from the apical membrane every 2–3 weeks and the day prior to use starting 21 days after initiating air–liquid interface culture.
After >30 days of air–liquid interface culture on Snapwell filter inserts, human bronchial epithelial cells formed well differentiated, electrically tight epithelia (Rt > 200 Ω cm^2). Prior to study, F508del/F508del and F508del/G551D human bronchial epithelial cell cultures were incubated at 37°C and 5% CO2.
Epithelia were mounted in Ussing chambers and data acquired and analysed as described above for Ussing chamber studies of FRT cells heterologously expressing CFTR with the following exceptions. Both the apical and basolateral membranes were bathed in solutions containing (mM): 137 NaCl, 4 KCl, 1.8 CaCl2, 1 MgCl2, 10 Na HEPES, and 10 glucose (pH 7.4 with NaOH). Epithelia of F508del/G551D human bronchial epithelial cells were studied at 35°C, whereas those of F508del/F508del human bronchial epithelial cells were assayed at 27°C to maintain the apical membrane expression of F508del‐CFTR. After cancelling voltage offsets, transepithelial voltage was clamped at 0 mV and short‐circuit current (Isc) recorded continuously. The protocol to record CFTR‐mediated Isc was the same as for ICl ^apical measurements except that amiloride (30 μM, apical solution) was added to inhibit the epithelial Na^+ channel before forskolin (10 μM, apical and basolateral solutions) addition.

F508del‐CFTR = F508del‐CFTR (Homo sapiens, UniProt P13569, DEL508-508); assay: Fluorescence-based halide flux assay (I−-induced quenching of YFP fluorescence) in FRT cells; assay type: cell-based; details: exploratory data
F508del‐CFTR, sequence (P13569 with tags, fused parts or gaps DEL508-508): as the sequence (P13569 whole entry F508del/G551D) above, with D550G counted along it
Experimental: Fischer rat thyroid (FRT) epithelial cells (RRID:CVCL_A6IE) expressing CFTR variants were used for functional studies with halide flux and Ussing chamber techniques. FRT cells stably expressing the F508del variant with the V470 polymorphism and the halide sensor yellow fluorescent protein (YFP)‐H148Q/I152L (F508del‐CFTR‐YFP‐FRT cells) (Galietta et al., [2001]) were obtained from LJV Galietta (Telethon Institute for Genetics and Medicine, Pozzuoli, Italy). They were cultured in Coon's modified Ham's F‐12 medium supplemented with 10% FBS, 2‐mM GlutaMAX™, 0.27% NaHCO3, 100 U·ml^−1 penicillin and 100 μg·ml^−1 streptomycin and 0.8 mg·ml^−1 zeocin at 37°C in a humidified atmosphere with 5% CO2. […]
CFTR‐mediated anion transport was quantified by measuring I^−‐induced quenching of YFP fluorescence using a microtitre plate reader following the method of Galietta et al. ([2001]). […] Using a fluorescence microtitre plate reader (FLIPR384; Molecular Devices, San Jose, CA, USA) equipped with 500‐nm excitation and 535‐nm emission filters, an initial fluorescence reading was recorded before addition of PBS‐iodide solution (composition [mM]: 137 NaI, 2.7 KCl, 8.1 Na2HPO4, 1.5 KH2PO4, 1 CaCl2, and 0.5 MgCl2, pH 7.40) into each well and 21 s later a second fluorescence reading was acquired. […]

Compound	EC50 [1] [µM]	Emax [1] [%]	maximal response compared with ivacaftor (F508del‐CFTR; FRT cells co-expressing low temperature-rescued F508del‐CFTR and YFP)	EC50 (F508del‐CFTR; FRT cells co-expressing low temperature-rescued F508del‐V470‐CFTR and YFP, forskolin 20 μM, scaled to DMSO 0% and genistein 50 μM 100%, read-out: EC50 for potentiation of CFTR-mediated anion transport) [nM]
Cc1ncccc1CNC(=O)c1ccc2c(c1)CC[C@H]1C[C@](O)(CCC(F)(F)F)CC[C@]21Cc1ccccc1 (racemic) [CP‐628006, rac‐(4bR,7R,8aS)‐4b‐benzyl‐7‐hydroxy‐N‐((2‐methylpyridin‐3‐yl)methyl)‐7‐(3,3,3‐trifluoropropyl)‐4b,5,6,7,8,8a,9,10‐octahydrophenanthrene‐2‐carboxamide]	0.14	18	approximately half that of ivacaftor	400
CC(C)(C)c1cc(C(C)(C)C)c(NC(=O)c2c[nH]c3ccccc3c2=O)cc1O [ivacaftor, reference compound]	0.005	103		
